# Assay results from US20130289070A1, “Use of Levocabastine for Modulating Generation of Pro-Inflammatory Cytokines” (Bausch & Lomb Incorporated, priority 2007, published 2013).
# Experiments:
# [1] = system: EoL-1 (human eosinophilic leukaemia cell line) cells; assay: TNF-α-induced cytokine release, non-differentiated EoL-1 cells (NO PMA) (Luminex); format: cell-based; details: 24 h, Bio1211 vs TNF-α
# Procedure: (§1) EoL-1 (human eosinophilic leukaemia cell line) cells (Saito et al., 1985; Mayumi, 1992) were maintained in RPMI-1640 medium with L-glutamine supplemented with 10% (v/v) FBS at 37° C. in a humidified atmosphere with 5% CO2. Where indicated, 24 h before the experiment 25 ng/mL PMA ((phorbol 12-myristate 13-acetate, purchased from Sigma Aldrich) was added to the medium to induce eosinophil granulation and differentiation (Ohtsu et al., 1993; Zimmermann et al., 2000).
# (§2) Half-million cells were aliquoted per point in a 24 well plate; each experiment was performed in triplicate and carried out in parallel with eosinophils differentiated and non differentiated with PMA (25 ng/mL, 24 h). Cells were suspended in low serum medium (RPMI-1640, 0.1% (v/v) FBS). TNF-α was used to induce cytokine secretion as previously described by Steube et al. (2000), and the net release was obtained by comparison to the basal (non-TNF-α treated). In the first experiment we evaluated the concentration and time relation between TNF-α stimulation and cytokine release. Therefore, 5, 10, and 25 ng/mL of TNF-α was administered to the cells at 0, ½, 1, 2, 3, 6, 12 and 24 h (data not shown). An aliquot of 150 μL of supernate was collected for cytokines' analysis. […] Differentiated and non-differentiated EoL-1 cells were exposed from 0.1 to 2.3 mM levocabastine ([…]Levocabastine 0.05% solution eye drops containing cyclodextrins, without benzalkonium chloride), and aliquots of the supernates were collected after 12 and 24 h. The content of cytokines at time zero was estimated by treating the cells with 400 nM calcimycin (A-23187), which is a cytolytic agent that frees all the mediators from the cytoplasmic compartment. In addition, for each experiment we tested the effect of the vehicle, which was added to the wells in a concentration equal to the maximum amount used for drug dilution.
# (§3) Samples (supernates 12 and 24 h) in triplicate were analyzed using Luminex 200™ (Luminex, Austin, Tex.) and Beadview software v1.0 (Upstate Cell Signaling Solutions, Temecula, Calif.).
# (§4) All data are presented as mean±SEM for the indicated number of experiments. Statistical significance was determined by Newman-Keuls test after ANOVA using GraphPad Prism (version 3.0; GraphPad Software Inc., San Diego, Calif., USA). P-values<0.05 were considered to be significant.
# [2] = system: EoL-1 (human eosinophilic leukaemia cell line) cells; assay: TNF-α-induced cytokine release, EoL-1 cells differentiated with PMA (Luminex); format: cell-based; details: 24 h, Bio1211 vs TNF-α
# Procedure: as §1, §2, §3, §4
substance,measurement,setting,value
4-((2-methylphenyl)aminocarbonyl)-aminophenyl)acetyl-Leu-Asp-Val-Pro-OH [Bio1211],"Fractalkine (NO PMA), p of decrement",[1],P < 0.05
same,"G-CSF (NO PMA), p of decrement",[1],ns
same,"GM-CSF (NO PMA), p of decrement",[1],P < 0.05
same,"IL-1ra (NO PMA), p of decrement",[1],P < 0.001
same,"IL-1α (NO PMA), p of decrement",[1],ns
same,"IL-1β (NO PMA), p of decrement",[1],ns
same,"IL-5 (NO PMA), p of decrement",[1],ns
same,"IL-6 (NO PMA), p of decrement",[1],P < 0.05
same,"IL-7 (NO PMA), p of decrement",[1],ns
same,"IL-8 (NO PMA), p of decrement",[1],P < 0.001
same,"IL-10 (NO PMA), p of decrement",[1],ns
same,"IL-12p40 (NO PMA), p of decrement",[1],P < 0.05
same,"IP-10 (NO PMA), p of decrement",[1],P < 0.001
same,"MCP-1 (NO PMA), p of decrement",[1],ns
same,"MIP-1α (NO PMA), p of decrement",[1],ns
same,"MIP-1β (NO PMA), p of decrement",[1],ns
same,"RANTES (NO PMA), p of decrement",[1],ns
same,"TGF-α (NO PMA), p of decrement",[1],ns
same,"VEGF (NO PMA), p of decrement",[1],ns
same,"Fractalkine (PMA), p of decrement",[2],ns
same,"G-CSF (PMA), p of decrement",[2],ns
same,"GM-CSF (PMA), p of decrement",[2],ns
same,"IL-1ra (PMA), p of decrement",[2],ns
same,"IL-1α (PMA), p of decrement",[2],P < 0.05
same,"IL-1β (PMA), p of decrement",[2],ns
same,"IL-5 (PMA), p of decrement",[2],ns
same,"IL-6 (PMA), p of decrement",[2],ns
same,"IL-7 (PMA), p of decrement",[2],ns
same,"IL-8 (PMA), p of decrement",[2],ns
same,"IL-10 (PMA), p of decrement",[2],ns
same,"IL-12p40 (PMA), p of decrement",[2],P < 0.05
same,"IP-10 (PMA), p of decrement",[2],P < 0.001
same,"MCP-1 (PMA), p of decrement",[2],P < 0.001
same,"MIP-1α (PMA), p of decrement",[2],ns
same,"MIP-1β (PMA), p of decrement",[2],ns
same,"RANTES (PMA), p of decrement",[2],ns
same,"TGF-α (PMA), p of decrement",[2],ns
same,"VEGF (PMA), p of decrement",[2],P < 0.05
